Data reported in patent US20260132129A1 (Genesis Therapeutics, Inc., priority 2022, published 2026).

Molecular target: T1, PI3Kα H1047R (T47D cells) (Homo sapiens, UniProt P42336, H1047R)
T1 construct: endogenous in cells; host or cells: T47D cells
Assay: PI3Kα cellular assay: pAKT HTRF in T47D cells after EGF stimulation
Assay type: cell-based
Conditions: for IC50: T47D cells (PI3Kα H1047R), pAKT S473 HTRF, EGF stimulation
Method in brief: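 pAKT read by HTRF in lysates of EGF-stimulated (20 ng/mL, 10 min) T47D H1047R cells. Before stimulation, serum-starved cells (16 h) received compound for 1 h at 37 °C, dosed from 10,000 nM down to 0.5 nM in 3-fold steps.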

T1 sequence (P42336 whole entry H1047R): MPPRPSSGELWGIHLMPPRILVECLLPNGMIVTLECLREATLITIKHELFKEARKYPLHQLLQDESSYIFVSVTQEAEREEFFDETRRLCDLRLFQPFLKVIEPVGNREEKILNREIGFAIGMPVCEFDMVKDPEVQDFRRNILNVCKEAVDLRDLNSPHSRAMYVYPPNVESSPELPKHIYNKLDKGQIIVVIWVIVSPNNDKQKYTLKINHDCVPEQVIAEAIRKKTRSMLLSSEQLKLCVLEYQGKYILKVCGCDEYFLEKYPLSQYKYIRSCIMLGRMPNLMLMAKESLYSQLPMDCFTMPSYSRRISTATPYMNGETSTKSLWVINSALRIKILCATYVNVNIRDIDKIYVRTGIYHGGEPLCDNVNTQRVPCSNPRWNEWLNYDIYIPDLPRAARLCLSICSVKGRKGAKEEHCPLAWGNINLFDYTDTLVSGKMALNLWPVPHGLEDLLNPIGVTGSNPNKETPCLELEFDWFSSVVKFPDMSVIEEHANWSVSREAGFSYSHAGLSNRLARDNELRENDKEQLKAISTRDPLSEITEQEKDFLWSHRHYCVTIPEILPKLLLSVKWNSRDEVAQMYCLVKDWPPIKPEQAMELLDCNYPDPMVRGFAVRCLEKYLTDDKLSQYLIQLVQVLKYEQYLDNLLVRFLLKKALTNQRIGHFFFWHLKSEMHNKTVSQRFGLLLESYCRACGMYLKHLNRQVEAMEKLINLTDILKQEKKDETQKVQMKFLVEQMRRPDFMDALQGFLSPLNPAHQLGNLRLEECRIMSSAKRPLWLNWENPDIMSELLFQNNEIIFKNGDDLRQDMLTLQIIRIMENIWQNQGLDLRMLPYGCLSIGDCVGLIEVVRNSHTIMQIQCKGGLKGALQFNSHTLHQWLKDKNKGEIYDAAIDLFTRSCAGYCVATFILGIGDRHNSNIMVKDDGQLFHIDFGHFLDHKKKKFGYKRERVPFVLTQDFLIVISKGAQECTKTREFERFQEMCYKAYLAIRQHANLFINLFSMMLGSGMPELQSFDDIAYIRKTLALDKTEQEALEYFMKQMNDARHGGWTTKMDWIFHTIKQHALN
T1 sequence (P27986 whole entry partner): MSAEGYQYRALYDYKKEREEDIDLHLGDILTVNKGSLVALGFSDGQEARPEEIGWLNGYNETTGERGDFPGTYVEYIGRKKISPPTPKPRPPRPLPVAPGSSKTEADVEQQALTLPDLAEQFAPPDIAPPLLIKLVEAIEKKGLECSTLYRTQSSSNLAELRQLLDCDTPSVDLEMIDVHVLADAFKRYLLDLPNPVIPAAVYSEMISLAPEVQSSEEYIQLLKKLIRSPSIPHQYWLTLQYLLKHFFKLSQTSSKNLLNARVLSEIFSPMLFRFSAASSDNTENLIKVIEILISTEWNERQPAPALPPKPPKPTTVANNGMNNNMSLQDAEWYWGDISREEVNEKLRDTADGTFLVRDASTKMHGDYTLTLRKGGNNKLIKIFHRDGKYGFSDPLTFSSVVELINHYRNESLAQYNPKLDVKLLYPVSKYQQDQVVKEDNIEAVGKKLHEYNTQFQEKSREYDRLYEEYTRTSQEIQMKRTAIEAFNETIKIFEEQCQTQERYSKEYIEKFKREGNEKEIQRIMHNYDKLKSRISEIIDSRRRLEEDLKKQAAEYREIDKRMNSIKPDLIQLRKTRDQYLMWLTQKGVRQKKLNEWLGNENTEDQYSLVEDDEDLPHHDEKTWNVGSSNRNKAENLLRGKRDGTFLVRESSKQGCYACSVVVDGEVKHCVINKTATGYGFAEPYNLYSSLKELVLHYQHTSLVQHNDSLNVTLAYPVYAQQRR

| SMILES | IC50 | T47D pAKT S473 HTRF IC50 (H1047R): T47D (H1047R) selectivity over SKBR3 (WT) |
| --- | --- | --- |
| Cc1cc(C(C)Nc2ccccc2C(N)=O)c2nc(-c3ccnc(C4CC4)c3)c(C)c(=O)n2c1 (stereo not drawn) [Compound 1063] | 0.1 to 0.5 µM | A (A denotes >20-fold) |
| Cc1cc([C@H](C)Nc2ccccc2C(=O)O)c2nc(-c3ccnc(C)c3)c(C)c(=O)n2c1 [Compound 1068] | > 2 µM | C (C denotes ≤5-fold) |
| Cc1cc([C@@H](C)Nc2ccccc2C(=O)O)c2nc(-c3ccc(Cl)cc3F)c(C)c(=O)n2c1 [Compound 1069] | < 0.1 µM | A (A denotes >20-fold) |
| COc1ccc(-c2nc3c([C@@H](C)Nc4ccccc4C(=O)O)cc(C)cn3c(=O)c2C)cc1 [Compound 1070] | < 0.1 µM | A (A denotes >20-fold) |
| COc1ccc(-c2nc3c([C@H](C)Nc4ccccc4C(=O)O)cc(C)cn3c(=O)c2C)cc1 [Compound 1071] | > 2 µM | C (C denotes ≤5-fold) |
| Cc1cc([C@@H](C)Nc2ccccc2C(=O)O)c2nc(-c3cccc(F)c3)c(C)c(=O)n2c1 [Compound 1073] | > 2 µM | C (C denotes ≤5-fold) |
| Cc1cc([C@H](C)Nc2ccccc2C(=O)O)c2nc(-c3ccc(CC4CCN(C(=O)C5CC5)CC4)c(F)c3)c(C)c(=O)n2c1 [Compound 1075] | > 2 µM | C (C denotes ≤5-fold) |
| Cc1cc([C@@H](C)Nc2ccccc2C(=O)O)c2nc(-c3cccc(C(F)F)c3)c(C)c(=O)n2c1 [Compound 1077] | 0.5 to 2 µM | B (B denotes 20-fold≥value>5-fold) |
| Cc1cc([C@H](C)Nc2ccccc2C(=O)O)c2nc(-c3ccc4c(c3)c(C#N)nn4C)c(C)c(=O)n2c1 [Compound 1082] | 0.5 to 2 µM | B (B denotes 20-fold≥value>5-fold) |
| Cc1cc([C@H](C)Nc2ccccc2C(=O)O)c2nc(-c3cnc(C#N)c(Cl)c3)c(C)c(=O)n2c1 [Compound 1084] | > 2 µM | C (C denotes ≤5-fold) |
| Cc1cc(C(C)Nc2ccccc2)c2nc(N3Cc4ccccc4C3)c(C)c(=O)n2c1 (stereo not drawn) [Compound 1085] | > 2 µM | C (C denotes ≤5-fold) |
| Cc1cc(C(C)Nc2ccccc2)c2nc(-c3ccc(F)cc3)c(C)c(=O)n2c1 (stereo not drawn) [Compound 1086] | > 2 µM | C (C denotes ≤5-fold) |
| Cc1cc([C@@H](C)Nc2ccccc2C(N)=O)c2nc(-c3ccnc(C4CC4)c3)c(C)c(=O)n2c1 [Compound 1089] | > 2 µM | C (C denotes ≤5-fold) |
| Cc1cc(C(C)Nc2ccccc2C(N)=O)c2nc(-c3ccnc(C4CC4)c3)c(C)c(=O)n2c1 (stereo not drawn) [Compound 1090] | < 0.1 µM | A (A denotes >20-fold) |
| Cc1cc(C(C)Nc2ccccc2C(N)=O)c2nc(-c3ccc(F)c(C#N)c3)c(C)c(=O)n2c1 (stereo not drawn) [Compound 1092] | 0.1 to 0.5 µM | A (A denotes >20-fold) |
| Cc1cc(C(C)Nc2ccccc2C(N)=O)c2nc(-c3cnc(C)c(Cl)c3)c(C)c(=O)n2c1 (stereo not drawn) [Compound 1094] | 0.1 to 0.5 µM | A (A denotes >20-fold) |
| Cc1cc([C@@H](C)Nc2ccccc2S(N)(=O)=O)c2nc(-c3ccnc(C4CC4)c3)c(C)c(=O)n2c1 [Compound 1095] | > 2 µM | C (C denotes ≤5-fold) |
| Cc1cc(C(C)Nc2ccccc2S(N)(=O)=O)c2nc(-c3ccnc(C4CC4)c3)c(C)c(=O)n2c1 (stereo not drawn) [Compound 1096] | < 0.1 µM | A (A denotes >20-fold) |
| Cc1cc([C@@H](C)Nc2ccccc2S(N)(=O)=O)c2nc(-c3cccc(C(F)F)c3)c(C)c(=O)n2c1 [Compound 1097] | < 0.1 µM | A (A denotes >20-fold) |
| Cc1cc([C@H](C)Nc2ccccc2S(N)(=O)=O)c2nc(-c3cccc(C(F)F)c3)c(C)c(=O)n2c1 [Compound 1098] | > 2 µM | C (C denotes ≤5-fold) |

| SMILES | IC50 | T47D pAKT S473 HTRF IC50 (H1047R): T47D (H1047R) selectivity over SKBR3 (WT) |
| --- | --- | --- |
| Cc1cc(C(C)Nc2ccccc2C(=O)O)c2nc(-c3cc(C)nc(Cl)c3)c(C)c(=O)n2c1 (stereo not drawn) [Compound 1099] | < 0.1 µM | A (A denotes >20-fold) |
| COc1cc(-c2nc3c([C@@H](C)Nc4ccccc4C(=O)O)cc(C)cn3c(=O)c2C)ccn1 [Compound 1101] | < 0.1 µM | A (A denotes >20-fold) |
| Cc1cc(C(C)Nc2ccccc2C(=O)O)c2nc(-c3cc(F)cc(C#N)c3)c(C)c(=O)n2c1 (stereo not drawn) [Compound 1103] | < 0.1 µM | A (A denotes >20-fold) |
| Cc1cc([C@@H](C)Nc2ccccc2S(N)(=O)=O)c2nc(-c3cccnc3)c(C)c(=O)n2c1 [Compound 1107] | < 0.1 µM | A (A denotes >20-fold) |
| Cc1cc([C@H](C)Nc2ccccc2S(N)(=O)=O)c2nc(-c3cccnc3)c(C)c(=O)n2c1 [Compound 1108] | 0.5 to 2 µM | B (B denotes 20-fold≥value>5-fold) |
| Cc1cc([C@@H](C)Nc2ccccc2C(=O)O)c2nc(-c3ccc(C4CC4)nc3)cc(=O)n2c1 [Compound 1111] | < 0.1 µM | A (A denotes >20-fold) |
| Cc1cc([C@H](C)Nc2ccccc2C(=O)O)c2nc(C3C=NC(C4CC4)=CC3)cc(=O)n2c1 (stereo partly drawn) [Compound 1112] |  | B (B denotes 20-fold≥value>5-fold) |
| Cc1cc([C@@H](C)Nc2ccccc2C(=O)O)c2nc(-c3cccc(C(F)F)c3)cc(=O)n2c1 [Compound 1113] | > 2 µM | C (C denotes ≤5-fold) |
| Cc1cc([C@H](C)Nc2ccccc2C(=O)O)c2nc(-c3cccc(C(F)F)c3)cc(=O)n2c1 [Compound 1114] | < 0.1 µM | A (A denotes >20-fold) |
| CCc1c(-c2ccc(F)cc2)nc2c([C@@H](C)Nc3ccccc3C(=O)O)cc(C)cn2c1=O [Compound 1115] | < 0.1 µM | A (A denotes >20-fold) |
| CCc1c(-c2ccc(F)cc2)nc2c([C@H](C)Nc3ccccc3C(=O)O)cc(C)cn2c1=O [Compound 1116] | 0.5 to 2 µM | B (B denotes 20-fold≥value>5-fold) |
| Cc1cc(C(C)Nc2ccccc2C#N)c2nc(-c3ccccc3)c(C)c(=O)n2c1 (stereo not drawn) [Compound 1117] |  | B (B denotes 20-fold≥value>5-fold) |
| C=CC(=O)Nc1ccc(C(=O)O)c(N[C@H](C)c2cc(C)cn3c(=O)c(C)c(N4Cc5ccccc5C4)nc23)c1 [Compound 1121] | > 2 µM | C (C denotes ≤5-fold) |
| C=CC(=O)Nc1ccc(C(=O)O)c(N[C@@H](C)c2cc(C)cn3c(=O)c(C)c(N4Cc5ccccc5C4)nc23)c1 [Compound 1122] | > 2 µM | C (C denotes ≤5-fold) |
| Cc1cc([C@@H](C)Nc2ccccc2)c2nc(-c3ccc(F)cc3)c(C)c(=O)n2c1 [Compound 1123] | > 2 µM | C (C denotes ≤5-fold) |
| Cc1cc([C@H](C)Nc2ccccc2)c2nc(-c3ccc(F)cc3)c(C)c(=O)n2c1 [Compound 1124] | > 2 µM | C (C denotes ≤5-fold) |
| Cc1cc([C@H](C)Nc2ccccc2C(=O)O)c2nc(-c3ccc4c(C)nn(C5CC5)c4c3)c(C)c(=O)n2c1 [Compound 1126] | > 2 µM | C (C denotes ≤5-fold) |
| Cc1cc(C(C)Nc2ccccc2-c2ccnnc2)c2nc(-c3ccc4c(C)nn(C5CC5)c4c3)c(C)c(=O)n2c1 (stereo not drawn) [Compound 1127] | > 2 µM | C (C denotes ≤5-fold) |
| Cc1cc([C@@H](C)Nc2ccccc2-c2ccnnc2)c2nc(-c3ccc4c(C)nn(C5CC5)c4c3)c(C)c(=O)n2c1 [Compound 1128] | > 2 µM | C (C denotes ≤5-fold) |
| Cc1cc([C@H](C)Nc2ccccc2-c2ccnnc2)c2nc(-c3ccc4c(C)nn(C5CC5)c4c3)c(C)c(=O)n2c1 [Compound 1129] | 0.5 to 2 µM | B (B denotes 20-fold≥value>5-fold) |
